This is an account of results in publication PMC7956626, “Phenylalanine-Derived β-Lactam TRPM8 Modulators. Configuration Effect on the Antagonist Activity” (International Journal of Molecular Sciences, 2021).

By IC50 is commonly meant the concentration at which inhibition is half-maximal.

Data set [1] has as its target T1, rat TRPM8 (Rattus norvegicus, UniProt Q8R455).
T1 construct: expressed in transfected cells; host or cells: HEK293 (human embryonic kidney), stably transfected
The arrangement: method as in PMID 32843690. Particulars: ref [41]; cited from earlier work.

For data set [2], the system named is oxaliplatin-induced allodynia. The arrangement: method as in PMID 32843690. Particulars: mice; from 15 to up to 60 min; ref [41]; cited from earlier work.
For a further data set, the system named is four tumor cell lines. The arrangement: method as in PMID 32843690. To be noted: non-selective, ref [41]; cited from earlier work.
Data set [3] addresses T1, rat TRPM8. The data set is described as follows: Ca2+ intracellular influx assay (calcium microfluorimetry), menthol-induced. Format: cell-based. Particulars: 100 μM menthol; for IC50 / % Blockade 5 μM / % Blockade 50 μM: HEK-rTRPM8; for % Blockade 5 μM: compound 5 μM; for % Blockade 50 μM: compound 50 μM; for Menthol-induced fluorescent signal: compound 10 μM, representative graph Figure A1. How it is done:
The four obtained diastereomeric compounds were evaluated for their ability to inhibit menthol-induced Ca^2+ intracellular influx into the cytosol on HEK293 cells heterologously expressing rat TRPM8. The well-known TRPM8 antagonist N-(3-aminopropyl)-2-[(3-methylphenyl)methoxy]-N-(2-thienylmethyl)-benzamide (AMTB) was used as control. Some representative graphs for compound 14 and 16 at 10 μM on HEK-rTRPM8 cells are included in Figure A1.
Compounds were evaluated for their activity against rTRPM8 using microfluorometry based calcium flux assays with Fluo-4 NW Ca^2+ dye and fluorescence were measured at excitation wavelength of 485 nm and emission wavelength of 520 nm using POLASTAR plate reader (BMG Labtech). Briefly human embryonic kidney cell line (HEK) stably transfected with rTRPM8 were seeded in 96-well plates at a cell density of 30,000 cells and 2 days before the medium was replaced with 100 μL of the dye loading solution Fluo-4 NW supplemented with probenecid 2.5 mM. After 1 h incubation at 37 °C, plates were transferred to the plate reader and the baseline fluorescence was recorded for 3 cycles before the addition of vehicle, compound at different concentrations and the antagonist, 10 μM AMTB for TRPM8. Fluorescence intensity was recorded during 7 more cycles and the agonist was added, 100 μM menthol. Fluorescence intensity was recorded during 10 more cycles.
Data analysis: the fluorescence values obtained for each compound concentration were normalized to that prompted by the control agonist (100 μM menthol). Decrease in menthol signal was expressed as percentage of inhibition (%). All data are expressed as the mean ± standard deviation (SD). Each condition was assessed in triplicate (n = 3) in 3 independent experiments (N = 3). The Z-factor was calculated in each assay using the following equation: […]. In all the experiments, the Z-factor was ≥ 0.5. To calculate IC50, normalized responses (%) versus log (μM) were adjusted to a non-linear fit with variable slope, a four-parameter dose–response curve following curve Y = 100/(1 + 10^((Log IC50-X) × HillSlope)) where […].

The next data set addresses T2, hTRPV1 (Homo sapiens, UniProt Q8NER1).
T2 construct: expressed in transfected cells
The data set is described as follows: Ca2+ influx assay, TRPV1 selectivity. The format is cell-based. To be noted: compound 50 μM; read-out: % TRPV1 Blockade at 50 μM. The source says: (§1) Because some molecular cross-recognition may occur within thermoTRP members, we evaluated the effect of compounds 14 and 16 on recombinantly expressed hTRPV1 and hTRPA1 channels. Data shown in Table 2 indicate that these β–lactam derivatives marginally cross-reacted with these channels, thus substantiating that they are potent and selective inhibitors of TRPM8.

For the next data set, the target named is T3, hTRPA1 (Homo sapiens, UniProt O75762).
T3 construct: expressed in transfected cells
T3 sequence (O75762 whole entry): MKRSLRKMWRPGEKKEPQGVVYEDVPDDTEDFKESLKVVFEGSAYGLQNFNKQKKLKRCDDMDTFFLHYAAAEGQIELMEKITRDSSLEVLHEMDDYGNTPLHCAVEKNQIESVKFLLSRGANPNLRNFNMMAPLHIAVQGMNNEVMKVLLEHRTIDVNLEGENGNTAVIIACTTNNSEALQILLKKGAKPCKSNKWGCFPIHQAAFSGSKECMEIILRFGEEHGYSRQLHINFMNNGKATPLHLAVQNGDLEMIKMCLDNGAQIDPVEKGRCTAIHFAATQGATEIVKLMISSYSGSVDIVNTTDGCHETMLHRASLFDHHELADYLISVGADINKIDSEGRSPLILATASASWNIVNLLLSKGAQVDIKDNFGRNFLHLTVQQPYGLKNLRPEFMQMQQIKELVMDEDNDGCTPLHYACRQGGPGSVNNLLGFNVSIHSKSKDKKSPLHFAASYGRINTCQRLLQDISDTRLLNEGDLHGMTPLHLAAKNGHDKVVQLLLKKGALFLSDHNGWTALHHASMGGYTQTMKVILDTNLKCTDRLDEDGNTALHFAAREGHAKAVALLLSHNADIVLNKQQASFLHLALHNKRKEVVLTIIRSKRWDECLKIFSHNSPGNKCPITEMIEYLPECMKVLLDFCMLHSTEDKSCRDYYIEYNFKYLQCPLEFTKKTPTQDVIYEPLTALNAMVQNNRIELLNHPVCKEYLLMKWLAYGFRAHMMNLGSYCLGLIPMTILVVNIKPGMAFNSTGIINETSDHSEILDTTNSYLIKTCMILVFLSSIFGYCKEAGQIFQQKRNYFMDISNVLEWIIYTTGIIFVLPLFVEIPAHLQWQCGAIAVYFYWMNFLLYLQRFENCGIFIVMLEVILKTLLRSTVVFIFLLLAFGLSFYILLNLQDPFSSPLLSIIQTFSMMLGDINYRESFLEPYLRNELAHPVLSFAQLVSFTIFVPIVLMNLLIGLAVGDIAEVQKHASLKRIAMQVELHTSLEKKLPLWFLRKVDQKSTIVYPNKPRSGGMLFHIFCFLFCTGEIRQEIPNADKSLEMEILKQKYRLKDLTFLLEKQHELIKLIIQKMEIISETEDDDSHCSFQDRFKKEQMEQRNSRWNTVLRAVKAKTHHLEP
Nature of the data set: Ca2+ influx assay, TRPA1 selectivity. The format is cell-based. Particulars: compound 50 μM; read-out: % TRPA1 Blockade at 50 μM.
Source text: as §1

Data set [4] addresses T1, rat TRPM8. The data set is described as follows: Whole-cell patch-clamp in HEK293 cells expressing rat TRPM8. Format: cell-based. Particulars: 100 μM menthol; for % Blockade at 10 μM: compound 10 μM, whole cell; for IC50: holding potential −60 mV. How it is done: In the electrophysiology assay, both compounds at 10 μM concentration were able to block TRPM8-mediated responses induced by menthol (Figure 2 and Figure A2, Table 3). […] After 10 μM of 14 was applied (Figure 2A, red), an important decrease on the menthol-induced TRPM8 activity at depolarizing voltages was observed. A similar behavior was detected after application of diastereomeric β–lactam 16 (Figure 2B). The dose–response curves for both compounds were obtained at a holding potential of −60 mV (Figure 2). The measured IC50 values were 0.9 ± 1.0 μM for 14 (Figure 2C) and 0.05 ± 1.3 μM for 16 (Figure 2D).
Whole-cell patch-clamp recordings from HEK-rTRPM8 cells were carried out 2 days after seeding on 12-mm Ø glass coverslips treated with poly-L-lysine solution (Sigma Aldrich, Spain); the intracellular pipette solution contained (in mM) 150 NaCl, 5 EGTA, 3 MgCl2 and 10 HEPES, adjusted to pH 7.2 with NaOH, and the extracellular solution contained (in mM) 150 NaCl, 6 CsCl, 1.5 CaCl2, 1 MgCl2, 10 D-glucose and 10 HEPES, adjusted to pH 7.4 with NaOH. The TRPM8 activity was measured by the application of two pulses of 100 μM menthol in a time interval of 2 min and a 30-s perfusion of the different compound concentrations before the second menthol pulse.
(§2) Data were sampled at 10 kHz (EPC10 amplifier with PatchMaster 2.53 software, HEKA Electronics, Lambrecht, Germany) and low-pass filtered at 3 kHz for analysis (PatchMaster 2.53 and GraphPad Prism 5, Graphpad Software, USA). The series resistance was <10 MΩ and to minimize voltage errors was compensated to 60–80%. All measurements were performed at 24–25 °C. Cell capacitance was measured and used to estimate the current density (J, pA/pF).
Data analysis: Results are expressed as the percentage of remaining activation of the TRPM8 channel. This is calculated by normalizing the ratio (p2/p1) of testing conditions to the ratio (p2/p1) of the control condition. Analysis of the data was performed by GraphPad 6.0, the Ordinary One-Way ANOVA analysis followed by the post hoc Bonferroni test stablished multiple comparisons and the ROUT method (Q = 10%) identified data outliers. A non-linear regression curve and IC50 were obtained by the representation of log (inhibitor) vs. response. All data are expressed as the mean ± standard error of the mean (SEM) (n = 5–8).
(In general: The patch-clamp technique gives a direct electrical read-out from membranes.)

The next data set relates to rat DRG sensory neurons. Nature of the data set: Current-clamp resting membrane potential of DRG sensory neurons. The format is cell-based. Particulars: compound 10 μM, t-test ns. How it is done:
Next, we investigated the effect of the membrane of rat DRG sensory neurons. […] Sensory neurons were functional as evidenced by action potentials fired exposed to 100 μM menthol (Figure 3A, top trace).
Current-Clamp recordings from rat DRGs were carried out 24–48 h after seeding on 12-mm Ø glass coverslips treated with poly-L-lysine solution and Laminin (Sigma Aldrich). The intracellular pipette solution contained (in mM): 4 NaCl, 126 K gluconate, 0.02 CaCl2, 1 MgSO4, 5 HEPES, 15 glucose, 3 ATP, 0.1 GTP and 5 EGTA, pH 7.2 with KOH. The extracellular solution contained (in mM): 140 NaCl, 4 KCl, 2 CaCl2, 2 MgCl2, 10 HEPES, 5 glucose and 20 mannitol, pH 7.4 with NaOH. The membrane potential was measured in the absence and the presence of compounds 14 and 16 at 10 μM in a time interval of 1 min.
as §2

A further data set concerns rat DRG neurons. The data set is described as follows: Microelectrode array, KCl-evoked action potentials in DRG neurons. Particulars: compound 10 μM; 40 mM KCl. Format: cell-based. The source says:
To further interrogate β–lactam derivatives’ action on the excitability of DRG neurons we next used microelectrode arrays (MEA). This technology records the electrogenic activity of neural populations that are located near to an electrode, but it cannot differentiate the number of neurons or other cells contributing to it. We used MEA chips with 60 electrodes and monitored the electrical activity at each electrode to measure if the potent inhibitory effect of β–lactam derivatives act on voltage-gated Na^+ and K^+ channels present in neurons and responsible for action potential propagation. Neurons isolated from neonatal rat dorsal root ganglions (DRG) were cultured on MEA chambers. The experimental paradigm consisted in applying a first 15-s pulse (P1) of 40 mM KCl, to evoke action potentials. […]
Data analysis: Data were analyzed using an MC_RACK spike sorter with a sample rate of 25 kHz and a Butterworth high-pass 2nd order filter applied with 200 Hz cutoff. […] Spiking activity was measured in a temporal interval of 30 s, starting right after instillation of the activating stimuli. […] The recorded signals were then processed to extract mean spike frequency for each pulse (P1–P2). Then, the ratio P2/P1 of mean spike frequency was calculated and normalized to vehicle for comparing the different conditions used.

In another data set the test system is TRPM8. The arrangement: method as in PMID 25893043, PMID 30148953. Particulars: healthy volunteers and migraneous patients, respectively; ref [35],[36]; cited from earlier work.

Entries after “also recorded” stand apart in the source; their conditions may differ.

T1 sequence (Q8R455 whole entry): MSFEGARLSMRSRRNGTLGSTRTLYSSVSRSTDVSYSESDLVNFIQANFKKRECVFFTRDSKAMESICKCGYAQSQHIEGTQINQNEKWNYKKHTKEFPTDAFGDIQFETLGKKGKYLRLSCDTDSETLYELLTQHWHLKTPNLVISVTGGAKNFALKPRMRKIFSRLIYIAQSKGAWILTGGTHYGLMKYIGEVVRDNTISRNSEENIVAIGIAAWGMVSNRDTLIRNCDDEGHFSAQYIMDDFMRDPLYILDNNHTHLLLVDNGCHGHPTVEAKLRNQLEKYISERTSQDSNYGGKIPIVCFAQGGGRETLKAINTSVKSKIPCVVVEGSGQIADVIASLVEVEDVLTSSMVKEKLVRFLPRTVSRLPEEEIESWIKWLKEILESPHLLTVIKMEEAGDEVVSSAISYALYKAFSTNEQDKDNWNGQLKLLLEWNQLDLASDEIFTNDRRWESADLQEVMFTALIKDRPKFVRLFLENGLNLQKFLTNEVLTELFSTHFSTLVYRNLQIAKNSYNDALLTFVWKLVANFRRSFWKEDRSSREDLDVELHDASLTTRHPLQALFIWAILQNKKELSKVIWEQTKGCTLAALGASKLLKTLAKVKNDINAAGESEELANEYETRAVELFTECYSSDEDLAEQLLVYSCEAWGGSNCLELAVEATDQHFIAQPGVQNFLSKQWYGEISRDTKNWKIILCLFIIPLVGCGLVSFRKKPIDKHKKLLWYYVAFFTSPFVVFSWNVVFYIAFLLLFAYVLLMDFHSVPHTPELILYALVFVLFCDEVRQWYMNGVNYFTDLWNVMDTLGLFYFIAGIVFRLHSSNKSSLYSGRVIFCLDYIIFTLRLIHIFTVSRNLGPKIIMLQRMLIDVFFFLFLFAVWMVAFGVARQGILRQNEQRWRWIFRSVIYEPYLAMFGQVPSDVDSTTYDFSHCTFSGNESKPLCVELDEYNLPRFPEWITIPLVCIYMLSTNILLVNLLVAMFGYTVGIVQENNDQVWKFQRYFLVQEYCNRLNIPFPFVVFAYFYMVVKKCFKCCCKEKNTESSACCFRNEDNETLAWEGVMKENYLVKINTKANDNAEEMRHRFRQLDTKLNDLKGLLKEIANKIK
T2 sequence (Q8NER1 whole entry): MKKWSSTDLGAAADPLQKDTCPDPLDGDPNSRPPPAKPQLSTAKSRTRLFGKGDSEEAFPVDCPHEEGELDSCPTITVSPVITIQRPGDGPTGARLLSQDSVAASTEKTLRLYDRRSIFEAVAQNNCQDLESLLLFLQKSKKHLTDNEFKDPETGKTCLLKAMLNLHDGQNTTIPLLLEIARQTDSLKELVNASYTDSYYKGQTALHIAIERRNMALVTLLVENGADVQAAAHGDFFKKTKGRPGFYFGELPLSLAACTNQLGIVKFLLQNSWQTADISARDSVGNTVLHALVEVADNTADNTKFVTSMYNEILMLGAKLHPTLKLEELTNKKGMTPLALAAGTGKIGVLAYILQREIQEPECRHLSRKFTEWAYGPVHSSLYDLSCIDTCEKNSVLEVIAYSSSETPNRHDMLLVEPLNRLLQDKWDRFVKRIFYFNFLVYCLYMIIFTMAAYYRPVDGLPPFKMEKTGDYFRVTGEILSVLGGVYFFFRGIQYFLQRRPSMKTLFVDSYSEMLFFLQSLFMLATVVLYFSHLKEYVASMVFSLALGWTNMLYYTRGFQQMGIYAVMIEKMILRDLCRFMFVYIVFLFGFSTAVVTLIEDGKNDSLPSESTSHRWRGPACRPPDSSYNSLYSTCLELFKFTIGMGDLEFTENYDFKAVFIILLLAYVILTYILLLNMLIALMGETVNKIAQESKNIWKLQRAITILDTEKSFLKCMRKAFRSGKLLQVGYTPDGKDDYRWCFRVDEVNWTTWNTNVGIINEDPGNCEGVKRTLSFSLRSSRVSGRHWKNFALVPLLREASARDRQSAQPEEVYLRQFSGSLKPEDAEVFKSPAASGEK

As for `C[C@@H]1C(=O)N(C[C@H](Cc2ccccc2)NC(=O)OCc2ccccc2)[C@]1(Cc1ccccc1)C(=O)OCc1ccccc1` [Compound 1], the “Block of channel activation by menthol (Ca2+ entry assay)” value at rat TRPM8 [1] is reported as “micromolar values”. In addition, the Oxaliplatin-induced allodynia entry in [2] is “significantly reduces the oxaliplatin-induced allodynia”. In the data set on four tumor cell lines, the Antitumor activity result is recorded as “micromolar potency in four tumor cell lines”.

Turning to `C[C@@H]1C(=O)N(C[C@H](Cc2ccccc2)N(Cc2ccccc2)Cc2ccccc2)[C@]1(Cc1ccccc1)C(=O)OCc1ccccc1` [Compound 13, 4S-Benzyl-1-[(2′S-dibenzylamino-3′-phenyl-)prop-1′-yl]-4-benzyloxicarbonyl-3S-methyl-2-oxoazetidine], at rat TRPM8 [3], the IC50 amounted to 3.1 ± 1.1 µM, the “% Blockade 5 μM” value is 57.7 ± 7.2% and the “% Blockade 50 μM” value is 86.1 ± 5.0%. Also, the inhibition at 50 µM at hTRPV1 came to 7.9 ± 3.2%. In addition, the inhibition at 50 µM at hTRPA1 was determined as 3.7 ± 4.1%.

As for `C[C@@H]1C(=O)N(C[C@@H](Cc2ccccc2)N(Cc2ccccc2)Cc2ccccc2)[C@]1(Cc1ccccc1)C(=O)OCc1ccccc1` [Compound 14, 4S-Benzyl-1-[(2′R-dibenzylamino-3′-phenyl)prop-1′-yl]-4-benzyloxicarbonyl-3S-methyl-2-oxoazetidine], on rat TRPM8 [3], the “% Blockade 5 μM” value was determined as 78.9 ± 1.7%, the Menthol-induced fluorescent signal result is given as “completely blocked” and the “% Blockade 50 μM” value was 87.7 ± 3.1%. Moreover, the inhibition at 50 µM on hTRPV1 came to 2.8 ± 4.1%. For the same compound, the inhibition at 50 µM on hTRPA1 was determined as 2.4 ± 1.4%. In addition, on rat TRPM8 [4], the “% Blockade at 10 μM” value was determined as 77.2 ± 2.7% and the IC50 was determined as 0.9 ± 1 µM. For the same compound, the “Effect on resting membrane potential” value in the data set with rat DRG sensory neurons is “do not affect the membrane resting potential”. For the same compound, the “Effect on potassium-evoked action potentials (electrogenicity)” value in the data set with rat DRG neurons is “do not alter potassium-evoked action potentials; also recorded: did not affected the electrogenicity”.

As for `C[C@H]1C(=O)N(C[C@H](Cc2ccccc2)N(Cc2ccccc2)Cc2ccccc2)[C@@]1(Cc1ccccc1)C(=O)OCc1ccccc1` [Compound 15, 4R-Benzyl-1-[(2′S-dibenzylamino-3′-phenyl)prop-1′-yl]-4-benzyloxicarbonyl-3R-methyl-2-oxoazetidine], at rat TRPM8 [3], the IC50 stood at 0.7 ± 1.1 µM, the “% Blockade 5 μM” value amounted to 71.1 ± 4.3% and the “% Blockade 50 μM” value is reported as 90.3 ± 2.8%. The inhibition at 50 µM on hTRPV1 came to 5.3 ± 3.4%. In addition, on hTRPA1, the inhibition at 50 µM came out at 2.6 ± 1.9%.

For `C[C@H]1C(=O)N(C[C@@H](Cc2ccccc2)N(Cc2ccccc2)Cc2ccccc2)[C@@]1(Cc1ccccc1)C(=O)OCc1ccccc1` [Compound 16, 4R-Benzyl-1-[(2′R-dibenzylamino-3′-phenyl-)prop-1′-yl]-4-benzyloxicarbonyl-3R-methyl-2-oxoazetidine], on rat TRPM8 [3], the “% Blockade 5 μM” value stood at 87.3 ± 8.1%, the Menthol-induced fluorescent signal result is on record as “completely blocked” and the “% Blockade 50 μM” value came out at 98.5 ± 3.2%. On hTRPV1, the inhibition at 50 µM was determined as 4.2 ± 3.2%. Moreover, on hTRPA1, the inhibition at 50 µM was found to be 0.5 ± 4.1%. Moreover, on rat TRPM8 [4], the “% Blockade at 10 μM” value was 79.3 ± 2.7% and the half-inhibitory concentration (IC50) came to 0.05 µM. For the same compound, the “Effect on resting membrane potential” value in the data set with rat DRG sensory neurons is listed as “do not affect the membrane resting potential”. In addition, the “Effect on potassium-evoked action potentials (electrogenicity)” value in the data set with rat DRG neurons is “do not alter potassium-evoked action potentials; also recorded: did not affected the electrogenicity”.

With `C[C@H](c1ccc(F)cc1)N(Cc1cccc(C(=O)O)c1)C(=O)c1cnc2ccccc2c1` [PF-05105679], the “Adverse effects in phase I clinical trials” value with TRPM8 is “several adverse effects, including feeling hot”.
